In patent US6048887A, “Substituted pyrroles” (Hoffmann-La Roche Inc., priority 1999, dated 2000):

Key:
Format in all cases: cell-based
[1] = test system: MDA-MB-435 cells; assay: Effect Of Test Compounds On Cell Cycle (propidium iodide, FACS); conditions: for % Of Cells In Each Cell Cycle Phase: G1 / % Of Cells In Each Cell Cycle Phase: G2/M / % Of Cells In Each Cell Cycle Phase: S: day 1 post addition; for effect on cell cycle (in words): statement in words, summarizing Tables I-IV
Experimental: For analysis of the effect of the compounds on cell cycle progression, MDA-MB-435 cells (ATCC; Rockville, Md.) were plated at 1×10^6 cells/10 mls per 10 cm dish in the following growth medium: RPMI 1640+10% Heat-Inactivated Fetal Bovine Serum, 2 mM L-glutamine and 50 U/ml pen-strep (all from GIBCO/BRL, Gaithersburg, Md.). The cells were incubated overnight at 37° C. with 5% CO2. The next day, 10 μl of each of the compounds to be tested, in a 100% DMSO solution, was added to individual dishes to obtain /1000× final concentration of the stock solution. In addition, 10 μl 100% DMSO was added to a control dish. The final concentration of DMSO in all plates, including the control, was 0.1%. The plates were returned to the incubator.
Thereafter, at various periods of time, the medium in each plate was removed to a 50 ml centrifuge tube. The cell layer remaining in the dish was then washed with 5 ml of phosphate buffered saline (PBS; GIBCO/BRL). The PBS was removed and combined with the medium in the appropriate tube. The cells were trypsinized for 5 minutes at 37° C., and the solution was collected and combined with the medium and PBS in the appropriate tubes. The tubes were then centrifuged for 5 minutes at 1200 rpm. The cells were fixed by removing the supernatant, tapping the tube to distribute the pellet, then adding 5 mls of cold 70% ethanol while vortexing gently. The cells were then stored at -20° C. for>24 hours.
The cell-containing tubes were taken out of freezer and allowed to sit at room temperature for 20-30 minutes. The tubes were centrifuged at 3000 rpm for 5 minutes. The supernatant was removed, the pellets were washed with 5 ml PBS, and the tubes were centrifuged as above. Subsequently, the supernatant was removed, and the pellet was resuspended in 0.5 ml PBS. Thereafter, 0.5 ml RNAse A (1 mg/ml in PBS) was added to each tube, and the tubes were incubated at 37° C. for 15 minutes. 100 μl propidium iodide (Sigma, St. Louis, Mo.) (1 mg/ml in PBS) was added to each tube, and the tubes were then incubated at room temperature for 2-3 minutes. Each resulting solution was passed through a filter cap tube (Becton Dickinson, San Jose, Calif., #2235).
Samples were read in a FACSort machine (Becton-Dickinson) using the manufacturer's CellQUEST program, and analyzed with the manufacturer is ModFIT software. This measurement provides an indication of the percent of cells in each of the following phases: G0/G1, DNA synthesis (S) and G2/M phases.
The results of a cell cycle progression experiment analyzed at day 1 post addition of test compounds I, II and III are summarized below in Table IV.

[2] = test system: MDA-MB-435; assay: Antiproliferative Activity In Cell Line MDA-MB-435 (MTT); conditions: Homo sapiens, average of at least three separate experiments
Experimental: (§1) The estrogen receptor negative epithelial breast carcinoma line (MDA-MB-435) was purchased from American Type Cell Culture Collection (ATCC; Rockville, Md.) and was grown in the medium recommended by ATCC. For analysis of the effect of the test compounds on growth of these cells, the cells were plated at 2000 cells per well in a 96-well tissue culture plate ("test plate"), and were incubated overnight at 37° C. with 5% CO2. The next day, the test compounds were dissolved in 100% dimethyl sulfoxide (DMSO) to yield a 10 mM stock solution. Each compound was diluted with sterile distilled water to 1 mM and then was added to triplicate wells of a 96-well "master plate" containing medium in a sufficient quantity to yield a final concentration of 40 μM. The compounds were serially diluted in medium in the "master plate." One-fourth final volume of the diluted compounds was transferred to duplicate "test plates." DMSO was added to a row of "control cells" such that; the final concentration of DMSO in each well was 0.1%. The "test plates" were returned to the incubator, and 3 days post addition of test compound, one "test plate" was analyzed as described below. Similarly, 5 days after addition of test compound, the second "test plate" also was analyzed as described below.
(§2) 3-(4,5-dimethylthiazole-2-yl)-2,5-diphenyl-2H-tetrazolium bromide (thiazolyl blue; MTT) was added to each well to yield a final concentration of 1 mg/ml. The plate was then incubated at 37° C. for 3 hours. The MTT-containing medium was then removed and 50 μl 100% ethanol was added to each well to dissolve the resulting formazan metabolite. […] Absorbencies were read in a microtiter plate reader (Molecular Dynamics) at a wavelength of 570 nm with a 650 nm reference. Percent inhibition was calculated by subtracting the blank from all wells, then subtracting the division of the average absorbance of each test triplicate by the average of the controls from 1.00. Inhibitory concentrations (IC50 and IC90) were determined from the linear regression of a plot of the logarithm of the concentration versus the percent inhibition.

[3] = test system: SW480; assay: Antiproliferative Activity In Cell Line SW480 (MTT); conditions: Homo sapiens, 144 h, 6 days post addition, average of at least three separate experiments
Experimental: [The procedure below names another cell line; the source says it served here with some conditions changed.] as §1
as §2, with “inhibition. […]” for “inhibition.”

[4] = test system: HCT-116; assay: Antiproliferative Activity In Cell Line HCT-116 (MTT); conditions: Homo sapiens, 96 h, 4 days post addition, average of at least three separate experiments
Experimental: [The procedure below names another cell line; the source says it served here with some conditions changed.] as §1
as §2, with “inhibition. […]” for “inhibition.”

Row | SMILES | % Of Cells In Each Cell Cycle Phase: G1 ([1]; 0.03 μM) | % Of Cells In Each Cell Cycle Phase: G2/M ([1]; 0.03 μM) | % Of Cells In Each Cell Cycle Phase: S ([1]; 0.03 μM) | % Of Cells In Each Cell Cycle Phase: G1 ([1]; 0.1 μM) | % Of Cells In Each Cell Cycle Phase: G2/M ([1]; 0.1 μM) | % Of Cells In Each Cell Cycle Phase: S ([1]; 0.1 μM) | effect on cell cycle (in words) [1] | IC50 [2] | IC50 [3] | IC50 [4] | also measured
1 | Cn1cc(C2=C(c3c[nH]c4ccccc34)C(=O)NC2=O)c2ccc([N+](=O)[O-])cc21 [Compound I, 3-(1H-Indol-3-yl)-4-(1-methyl-6-nitro-1H-indol-3-yl)-pyrrole-2,5-dione] | 45.30% | 20.03% | 34.67% | 8.27% | 66.52% | 25.21% | cause an accumulation of cells in the G2/m phase of the cell cycle | 30 nM | 200 nM | 170 nM | % Of Cells In Each Cell Cycle Phase: G1 ([1]; 0.01 μM): 44.95%; % Of Cells In Each Cell Cycle Phase: G2/M ([1]; 0.01 μM): 14.00%; % Of Cells In Each Cell Cycle Phase: S ([1]; 0.01 μM): 41.04%
2 | Cn1cc(C2=C(c3cn(CO)c4ccccc34)C(=O)NC2=O)c2ccc([N+](=O)[O-])cc21 [Compound II, 3-(1-Hydroxymethyl-1H-indol-3-yl)-4-(1-methyl-6-nitro-1H-indol-3-yl)-pyrrole-2,5-dione] | 45.45% | 16.50% | 38.06% | 15.54% | 60.40% | 24.06% | cause an accumulation of cells in the G2/m phase of the cell cycle | 50 nM | 220 nM | 230 nM | % Of Cells In Each Cell Cycle Phase: G1 ([1]; 0.3 μM): 1.11%; % Of Cells In Each Cell Cycle Phase: G2/M ([1]; 0.3 μM): 73.90%; % Of Cells In Each Cell Cycle Phase: S ([1]; 0.3 μM): 24.99%
3 | Cn1cc(C2=C(c3c[nH]c4cc([N+](=O)[O-])ccc34)C(=O)NC2=O)c2ccccc21 [Compound III, 3-(1-Methyl-1H-indol-3-yl)-4-(6-nitro-1H-indol-3-yl)-pyrrole-2,5-dione] |  |  |  |  |  |  | cause an accumulation of cells in the G2/m phase of the cell cycle | 600 nM | 1860 nM | 1660 nM | % Of Cells In Each Cell Cycle Phase: G1 ([1]; 1 μM): 27.21%; % Of Cells In Each Cell Cycle Phase: G2/M ([1]; 1 μM): 42.60%; % Of Cells In Each Cell Cycle Phase: S ([1]; 1 μM): 30.19%; % Of Cells In Each Cell Cycle Phase: G1 ([1]; 3 μM): 3.26%; % Of Cells In Each Cell Cycle Phase: G2/M ([1]; 3 μM): 47.99%; % Of Cells In Each Cell Cycle Phase: S ([1]; 3 μM): 48.75%; % Of Cells In Each Cell Cycle Phase: G1 ([1]; 10 μM): 10.41%; % Of Cells In Each Cell Cycle Phase: G2/M ([1]; 10 μM): 54.34%; % Of Cells In Each Cell Cycle Phase: S ([1]; 10 μM): 35.25%
